This is an account of results in patent US5814638A, “Ophthalmic formulation for treating myopia comprising dopamine agonist and cyclodextrin” (LG Chemical Ltd., priority 1996, dated 1998).

The conditions of data set [1]: in vivo; cited from earlier work.
For data set [2] the following is noted: cited from earlier work; for Stability with sodium acetate: Tris buffer pH 7.4, sodium acetate added; for Stability in Tris buffer: pH 7.4.
A short description of data set [3]: Solubility of dopamine agonists in 10 mM citrate buffer (pH 5) at 25° C. with or without HPCD. The data set is classed as physicochemical. The method, then:
(§1) The stability and solubility of dopamine agonists, i.e., bromocriptine(BCT), apomorphine(APO), pergolide(PER), and lisuride(LIS) were tested as follows.
(§2) For the stability test, solutions each containing 100 μg/ml of the dopamine agonist in 10 mM citrate buffer(pH 5) were incubated at 25° C. for 30 days with or without added 2-hydroxypropyl-β-cyclodextrin(HPCD, average molar substitution=0.8, average molecular weight=1500; 20 wt % based on the solution).
(§3) The amounts of the dopamine agonists in sample solutions of the stability and solubility tests were determined by HPLC method with fluorescence detector.
(§4) Each data point in FIGS. 1A and 1B represents the mean of two determinations and each value in FIG. 2 is the mean±SD(standard deviation) of three determinations. […] The addition of HPCD also bring about marked increases in the solubilities of the dopamine agonists; by a factor of 19 for bromocriptine, and two for apomorphine, pergolide, and lisuride.

Data set [4] concerns eye of a young maturing animal. As to conditions: ocular administration; cited from earlier work.
The next data set relates to form-deprivation myopia. Particulars: daily intravitreal injections; young chickens; cited from earlier work.
Data set [5] is described as follows: Stability of dopamine agonists in 10 mM citrate buffer (pH 5) at 25° C. with or without HPCD. The data set is classed as physicochemical. Particulars: 100 μg/ml, 10 mM citrate buffer pH 5, 25° C., 30 days, with vs without 20 wt % HPCD. The procedure: as §1, §2, §3, §4
The conditions of data set [6]: mucoadhesive polymer, e.g., polycarbophil; cited from earlier work.
For data set [7] the following is noted: in vivo; cited from earlier work. This is another data set of the same source.

As for 2-hydroxypropyl-β-cyclodextrin, the Tolerability when administered result in data set [1] is on record as “innocuous when administered”.

`CN1CCc2cccc3c2[C@H]1Cc1ccc(O)c(O)c1-3` [apomorphine]: in data set [2] (0.01% mercaptoethanol), the Stability with mercaptoethanol result is “stability of apomorphine is improved”. In data set [2], the “Stability with sodium acetate” value is “greatly enhanced” and the “Stability in Tris buffer” value is reported as “unstable”. Also, the Stability with antioxidants entry in data set [2] (water or plasma, ascorbic acid and sodium bisulfate) is on record as “can be stabilized by the addition of antioxidants”. The “Increase in solubility by addition of HPCD (factor)” value (from here on “Increase in solubility by addition”) in data set [3] (pH 5) was “two”. For the same molecule, in data set [4], the “Inhibition of axial enlargement of the eye” value (“Inhibition” for short) is “can inhibit, and in some cases completely prevent, the axial enlargement of the eye”. In addition, the “Effect on form-deprivation myopia (FDM)” value with form-deprivation myopia is recorded as “block form-deprivation myopia”.

`CC(C)C[C@H]1C(=O)N2CCC[C@H]2[C@]2(O)O[C@](NC(=O)[C@@H]3C=C4c5cccc6[nH]c(Br)c(c56)C[C@H]4N(C)C3)(C(C)C)C(=O)N12` [bromocriptine]: in data set [5], the “Effect of HPCD on stability” value is listed as “significant increases in the stabilities”.

On to `CCCC(=O)c1ccccc1` [butyrophenone], for which the “Inhibition” value in data set [4] is “can inhibit, and in some cases completely prevent, the axial enlargement of the eye”.

On to `NCCc1ccc(O)c(O)c1` [dopamine], for which, in data set [2], the “Stability with sodium acetate” value is on record as “greatly enhanced” and the “Stability in Tris buffer” value is listed as “unstable”.

For the molecule `O=C(CCCN1CCC(O)(c2ccc(Cl)cc2)CC1)c1ccc(F)cc1` [haloperidol], the “Inhibition” value in data set [4] was “can inhibit, and in some cases completely prevent, the axial enlargement of the eye”.

For `CCN(CC)C(=O)N[C@H]1C=C2c3cccc4[nH]cc(c34)C[C@H]2N(C)C1` [lisuride], in data set [5], the “Effect of HPCD on stability” value is “does not affect the stabilities”. Further, in data set [3] (20 mg/ml, 10 mM citrate buffer pH 5, 25° C., 24 hours, 20 wt % HPCD vs none), the “Increase in solubility by addition” value is given as “two”.

Consider `CCCN1C[C@H](CSC)C[C@@H]2c3cccc4[nH]cc(c34)C[C@H]21` [pergolide], for which, in data set [3] (pH 5), the “Increase in solubility by addition” value was “two”.

Turning to gentamicin, the “Penetration via the conjunctival-scleral pathway” value in data set [6] is recorded as “facilitated”.

With poly(vinyl alcohol), the “Increase in the iris-ciliary body to plasma drug concentration ratio” value in data set [7] is listed as 52 fold.
